# Source: patent US20210355121A1, “FUSED TRICYCLIC KRAS INHIBITORS” (Incyte Corporation, priority 2020, published 2021)
# Read-outs that look alike come from different tables or passages of the source.
# Columns and labels:
# [1] = tested on: MIA PaCa-2 (KRAS G12C) cells; assay: KRAS_G12C cellular pERK HTRF assay; format: cell-based, human; conditions: phospho-ERK1/2 HTRF, 4 hours incubation, read-out: G12C_pERK (KRAS_G12C pERK assay IC50)
# Protocol: MIA PaCa-2 (KRAS G12C; ATCC® CRL-1420), A427 (KRAS G12D; ATCC® HTB53), HPAF-II (KRAS G12D; ATCC® CRL-1997) and NCI-H838 (KRAS WT; ATCC® CRL-5844) cells are purchased from ATCC and maintained in RPMI 1640 media supplemented with 10% FBS (Gibco/Life Technologies). The cells are plated at 5000 cells per well (8 uL) into Greiner 384-well low volume, flat-bottom, tissue culture treated white plates and incubated overnight at 37° C., 5% CO2. The next morning, test compound stock solutions are diluted in media at 3× the final concentration, and 4 uL are added to the cells. The plate is mixed by gentle rotation for 30 seconds (250 rpm) at room temperature. The cells are incubated with the KRAS G12C and G12D compounds for 4 hours or 2 hours respectively at 37° C., 5% CO2.
# 4 uL of 4× lysis buffer with blocking reagent (1:25) (Cisbio) are added to each well and plates are rotated gently (300 rpm) for 30 minutes at room temperature. 4 uL per well of Cisbio anti Phospho-ERK 1/2 d2 is mixed with anti Phospho-ERK 1/2 Cryptate (1:1) are added to each well, mixed by rotation and incubated overnight in the dark at room temperature. Plates are read on the Pherastar plate reader at 665 nm and 620 nm wavelengths. IC50 determination is performed by fitting the curve of inhibitor percent inhibition versus the log of the inhibitor concentration using the GraphPad Prism 7 software.
# KRAS G12C = KRAS G12C (Homo sapiens, UniProt P01116, G12C); assay: KRAS G12C GDP-GTP exchange assay (bodipy-GDP for GppNHp, with SOS1); format: biochemical; parameters: G12C_exchange (KRAS_G12C exchange assay IC50): scale not given here; conditions: 2.5 nM bodipy-loaded KRAS G12C, 2 hours pre-incubation with inhibitor, 2 hours after GppNHp-SOS1; for IC50: read-out: G12C_exchange (KRAS_G12C exchange assay IC50)
# Sequence of KRAS G12C (P01116 1-188 isoform P01116-2 G12C): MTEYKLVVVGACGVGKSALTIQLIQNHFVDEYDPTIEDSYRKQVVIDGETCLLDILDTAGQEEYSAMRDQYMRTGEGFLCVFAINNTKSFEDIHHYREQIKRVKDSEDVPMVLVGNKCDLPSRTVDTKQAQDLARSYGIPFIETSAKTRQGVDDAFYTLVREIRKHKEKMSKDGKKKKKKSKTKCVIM
# Protocol: The inhibitor potency of the exemplified compounds was determined in a fluorescence based guanine nucleotide exchange assay, which measures the exchange of bodipy-GDP (fluorescently labeled GDP) for GppNHp (Non-hydrolyzable GTP analog) to generate the active state of KRAS in the presence of SOS1 (guanine nucleotide exchange factor). Inhibitors were serially diluted in DMSO and a volume of 0.1 μL was transferred to the wells of a black low volume 384-well plate. 5 μL/well volume of bodipy-loaded KRAS G12C diluted to 5 nM in assay buffer (25 mM Hepes pH 7.5, 50 mM NaCl, 10 mM MgCl2 and 0.01% Brij-35) was added to the plate and pre-incubated with inhibitor for 2 hours at ambient temperature. Appropriate controls (enzyme with no inhibitor or with a G12C inhibitor (AMG-510)) were included on the plate. The exchange was initiated by the addition of a 5 μL/well volume containing 1 mM GppNHp and 300 nM SOS1 in assay buffer. The 10 μL/well reaction concentration of the bodipy-loaded KRAS G12C, GppNHp, and SOS1 were 2.5 nM, 500 uM, and 150 nM, respectively. The reaction plates were incubated at ambient temperature for 2 hours, a time estimated for complete GDP-GTP exchange in the absence of inhibitor. For the KRAS G12D and G12V mutants, similar guanine nucleotide exchange assays were used with 2.5 nM as final concentration for the bodipy loaded KRAS proteins and with 4 hours and 3 hours incubation after adding GppNHp-SOS1 mixture for G12D and G12V respectively. A cyclic peptide described to selectively bind G12D mutant (Sakamoto et al., BBRC 484.3 (2017), 605-611) or internal compounds with confirmed binding were used as positive controls in the assay plates. Fluorescence intensities were measured on a PheraStar plate reader instrument (BMG Labtech) with excitation at 485 nm and emission at 520 nm.
# Either GraphPad prism or XLfit was used to analyze the data. The IC50 values were derived by fitting the data to a four parameter logistic equation producing a sigmoidal dose-response curve with a variable Hill coefficient. Prism equation: Y=Bottom+(Top−Bottom)/(1+10^((Log IC50−X)*Hill slope)); XLfit equation: Y=(A+((B−A)/(1+((X/C)^D)))) where X is the logarithm of inhibitor concentration and Y is the response.
Compound,"IC50 ([1]; Homo sapiens, MIA PaCa-2)",IC50 (KRAS G12C),IC50 [1],G12C_exchange (KRAS_G12C exchange assay IC50) (KRAS G12C)
"C=CC(=O)N1CC[C@H](n2ncc3c(N4CC(N(C)C)C4)nc4c(F)c(-c5c(C)c(Cl)cc6[nH]ncc56)c(Cl)cc4c32)C[C@H]1CC#N (single isomer, unassigned) [Example 3a]",≤ 100 nM,≤ 100 nM,–,–
"Cc1c(Cl)cc2[nH]ncc2c1-c1c(Cl)cc2c(nc(N3CC(N(C)C)C3)c3cnn([C@H]4CCN(C(=O)/C=C/CN(C)C)[C@H](CC#N)C4)c32)c1F (single isomer, unassigned) [Example 4b]",–,–,–,††
"COC/C=C/C(=O)N1CC[C@H](n2ncc3c(N4CC(N(C)C)C4)nc4c(F)c(-c5c(C)c(Cl)cc6[nH]ncc56)c(Cl)cc4c32)C[C@H]1CC#N (single isomer, unassigned) [Example 5a]",≤ 100 nM,≤ 100 nM,–,–
"Cc1c(Cl)cc2[nH]ncc2c1-c1c(Cl)cc2c(nc(N3CC(N(C)C)C3)c3cnn([C@H]4CCN(C(=O)/C=C/CF)[C@H](CC#N)C4)c32)c1F (single isomer, unassigned) [Example 6a]",≤ 100 nM,≤ 100 nM,–,–
"Cc1c(Cl)cc2[nH]ncc2c1-c1c(Cl)cc2c(nc(N3CC(N(C)C)C3)c3cnn([C@H]4CCN(C(=O)/C=C/C(F)F)[C@H](CC#N)C4)c32)c1F (single isomer, unassigned) [Example 7a]",≤ 100 nM,≤ 100 nM,–,–
"C=C(F)C(=O)N1CC[C@H](n2ncc3c(N4CC(N(C)C)C4)nc4c(F)c(-c5c(C)c(Cl)cc6[nH]ncc56)c(Cl)cc4c32)C[C@H]1CC#N (single isomer, unassigned) [Example 8a]",≤ 100 nM,≤ 100 nM,–,–
"CC#CC(=O)N1CC[C@H](n2ncc3c(N4CC(N(C)C)C4)nc4c(F)c(-c5c(C)c(Cl)cc6[nH]ncc56)c(Cl)cc4c32)C[C@H]1CC#N (single isomer, unassigned) [Example 9b]",–,–,–,††
"Cc1c(Cl)cc2[nH]ncc2c1-c1c(Cl)cc2c(nc(N3CC(C)(N(C)C)C3)c3cnn([C@H]4CCN(C(=O)/C=C/CN(C)C)[C@H](CC#N)C4)c32)c1F (single isomer, unassigned) [Example 10a]",≤ 100 nM,≤ 100 nM,–,–
"CC#CC(=O)N1CC[C@H](n2ncc3c(N4CC(C)(N(C)C)C4)nc4c(F)c(-c5c(C)c(Cl)cc6[nH]ncc56)c(Cl)cc4c32)C[C@H]1CC#N (single isomer, unassigned) [Example 11a]",≤ 100 nM,≤ 100 nM,–,–
"COC/C=C/C(=O)N1CC[C@H](n2ncc3c(N4CC(C)(N(C)C)C4)nc4c(F)c(-c5c(C)c(Cl)cc6[nH]ncc56)c(Cl)cc4c32)C[C@H]1CC#N (single isomer, unassigned) [Example 12a]",≤ 100 nM,≤ 100 nM,–,–
"Cc1c(Cl)cc2[nH]ncc2c1-c1c(Cl)cc2c(nc(N3CC(C)(N(C)C)C3)c3cnn([C@H]4CCN(C(=O)/C=C/C(F)F)[C@H](CC#N)C4)c32)c1F (single isomer, unassigned) [Example 14b]",–,–,–,††
"C=C(F)C(=O)N1CC[C@H](n2ncc3c(N4CC(C)(N(C)C)C4)nc4c(F)c(-c5c(C)c(Cl)cc6[nH]ncc56)c(Cl)cc4c32)C[C@H]1CC#N (single isomer, unassigned) [Example 15b]",–,–,–,††
"C=CC(=O)N1CC[C@H](n2ncc3c(N4CC(C)(N(C)C)C4)nc4c(F)c(-c5c(C)c(Cl)cc6[nH]ncc56)c(Cl)cc4c32)C[C@H]1CC#N (single isomer, unassigned) [Example 16b]",–,–,–,††
"CC#CC(=O)N1CC[C@H](n2ncc3c(OC[C@@H]4CCCN4C)nc4c(F)c(-c5c(C)c(Cl)cc6[nH]ncc56)c(Cl)cc4c32)C[C@H]1CC#N (single isomer, unassigned) [Example 18b]",–,–,–,††
"COC/C=C/C(=O)N1CC[C@H](n2ncc3c(OC[C@@H]4CCCN4C)nc4c(F)c(-c5c(C)c(Cl)cc6[nH]ncc56)c(Cl)cc4c32)C[C@H]1CC#N (single isomer, unassigned) [Example 19b]",–,–,–,††
"C=CC(=O)N1CC[C@H](n2ncc3c(OC[C@@H]4CCCN4C)nc4c(F)c(-c5c(C)c(Cl)cc6[nH]ncc56)c(Cl)cc4c32)C[C@H]1CC#N (single isomer, unassigned) [Example 20b]",–,≤ 100 nM,–,–

# Now from value to compound:
"IC50 ([1]; Homo sapiens, MIA PaCa-2)",IC50 (KRAS G12C),IC50 [1],G12C_exchange (KRAS_G12C exchange assay IC50) (KRAS G12C),Compound
–,≤ 100 nM,≤ 100 nM,–,"C=CC(=O)N1CC[C@H](n2ncc3c(N4CC(N(C)C)C4)nc4c(F)c(-c5c(C)c(Cl)cc6[nH]ncc56)c(Cl)cc4c32)C[C@H]1CC#N (single isomer, unassigned) [Example 3b]"
≤ 100 nM,≤ 100 nM,–,–,"Cc1c(Cl)cc2[nH]ncc2c1-c1c(Cl)cc2c(nc(N3CC(N(C)C)C3)c3cnn([C@H]4CCN(C(=O)/C=C/CN(C)C)[C@H](CC#N)C4)c32)c1F (single isomer, unassigned) [Example 4a]"
–,–,–,††,"COC/C=C/C(=O)N1CC[C@H](n2ncc3c(N4CC(N(C)C)C4)nc4c(F)c(-c5c(C)c(Cl)cc6[nH]ncc56)c(Cl)cc4c32)C[C@H]1CC#N (single isomer, unassigned) [Example 5b]"
–,–,–,††,"Cc1c(Cl)cc2[nH]ncc2c1-c1c(Cl)cc2c(nc(N3CC(N(C)C)C3)c3cnn([C@H]4CCN(C(=O)/C=C/CF)[C@H](CC#N)C4)c32)c1F (single isomer, unassigned) [Example 6b]"
–,–,–,††,"Cc1c(Cl)cc2[nH]ncc2c1-c1c(Cl)cc2c(nc(N3CC(N(C)C)C3)c3cnn([C@H]4CCN(C(=O)/C=C/C(F)F)[C@H](CC#N)C4)c32)c1F (single isomer, unassigned) [Example 7b]"
–,–,–,††,"C=C(F)C(=O)N1CC[C@H](n2ncc3c(N4CC(N(C)C)C4)nc4c(F)c(-c5c(C)c(Cl)cc6[nH]ncc56)c(Cl)cc4c32)C[C@H]1CC#N (single isomer, unassigned) [Example 8b]"
≤ 100 nM,≤ 100 nM,–,–,"CC#CC(=O)N1CC[C@H](n2ncc3c(N4CC(N(C)C)C4)nc4c(F)c(-c5c(C)c(Cl)cc6[nH]ncc56)c(Cl)cc4c32)C[C@H]1CC#N (single isomer, unassigned) [Example 9a]"
–,–,–,††,"Cc1c(Cl)cc2[nH]ncc2c1-c1c(Cl)cc2c(nc(N3CC(C)(N(C)C)C3)c3cnn([C@H]4CCN(C(=O)/C=C/CN(C)C)[C@H](CC#N)C4)c32)c1F (single isomer, unassigned) [Example 10b]"
–,–,–,††,"CC#CC(=O)N1CC[C@H](n2ncc3c(N4CC(C)(N(C)C)C4)nc4c(F)c(-c5c(C)c(Cl)cc6[nH]ncc56)c(Cl)cc4c32)C[C@H]1CC#N (single isomer, unassigned) [Example 11b]"
–,–,–,††,"COC/C=C/C(=O)N1CC[C@H](n2ncc3c(N4CC(C)(N(C)C)C4)nc4c(F)c(-c5c(C)c(Cl)cc6[nH]ncc56)c(Cl)cc4c32)C[C@H]1CC#N (single isomer, unassigned) [Example 12b]"
–,–,–,††,"Cc1c(Cl)cc2[nH]ncc2c1-c1c(Cl)cc2c(nc(N3CC(C)(N(C)C)C3)c3cnn([C@H]4CCN(C(=O)/C=C/CF)[C@H](CC#N)C4)c32)c1F (single isomer, unassigned) [Example 13b]"
